From PubChem BioAssay (NCI)
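Grown in 96-well plates, cells were treated for 48 hours with each compound at five concentrations. Insufficient inhibition: endpoint recorded as highest concentration tested. TGI marks complete inhibition of growth.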

Tests used:
Experiment in all cases: DTP human tumour cell line panel, 48 h
A549 NSCLC = tested on: A549 NSCLC
ACHN renal = tested on: ACHN renal
BT-549 breast = tested on: BT-549 breast
HCC-2998 colon = tested on: HCC-2998 colon
HCT-116 colon = tested on: HCT-116 colon
MOLT-4 leukemia = tested on: MOLT-4 leukemia
OVCAR-3 ovarian = tested on: OVCAR-3 ovarian
OVCAR-5 ovarian = tested on: OVCAR-5 ovarian
OVCAR-8 ovarian = tested on: OVCAR-8 ovarian
PC-3 prostate = tested on: PC-3 prostate
SF-295 CNS = tested on: SF-295 CNS
SF-539 CNS = tested on: SF-539 CNS
U251 CNS = tested on: U251 CNS
CCRF-CEM leukemia = tested on: CCRF-CEM leukemia
T-47D breast = tested on: T-47D breast

CC(C)(C)OC(=O)NC(Cc1ccc([N+](=O)[O-])cc1)C(=O)NC(CCCCNC(=O)OCc1ccccc1)C(=O)ON1C(=O)CCC1=O (stereo unspecified)
TGI (A549 NSCLC): > 100 µM
TGI (ACHN renal): > 100 µM
TGI (BT-549 breast): > 100 µM
TGI (HCC-2998 colon): 79.4 µM
TGI (HCT-116 colon): > 100 µM
TGI (MOLT-4 leukemia): > 100 µM
TGI (OVCAR-3 ovarian): > 100 µM
TGI (OVCAR-5 ovarian): > 100 µM
TGI (OVCAR-8 ovarian): > 100 µM
TGI (PC-3 prostate): > 100 µM
TGI (SF-295 CNS): > 100 µM
TGI (SF-539 CNS): > 100 µM
TGI (U251 CNS): > 100 µM

CC(C)[Si](OC1=CCCCCC12C(=O)N(C)c1ccccc12)(C(C)C)C(C)C (stereo unspecified)
TGI (A549 NSCLC): 48.8 µM
TGI (ACHN renal): 35.9 µM
TGI (CCRF-CEM leukemia): 36.5 µM
TGI (HCC-2998 colon): 38.3 µM
TGI (MOLT-4 leukemia): > 100 µM
TGI (OVCAR-3 ovarian): 31.8 µM
TGI (OVCAR-5 ovarian): 33.2 µM
TGI (OVCAR-8 ovarian): 44.6 µM
TGI (PC-3 prostate): > 100 µM
TGI (SF-295 CNS): 28.6 µM
TGI (SF-539 CNS): 41.7 µM
TGI (T-47D breast): 21.3 µM
TGI (U251 CNS): 36.3 µM

CC1OC(=O)c2ccccc2NC1=O (stereo unspecified)
TGI (A549 NSCLC): > 100 µM
TGI (ACHN renal): > 100 µM
TGI (BT-549 breast): > 100 µM
TGI (CCRF-CEM leukemia): > 100 µM
TGI (HCT-116 colon): > 100 µM
TGI (MOLT-4 leukemia): > 100 µM
TGI (OVCAR-3 ovarian): > 100 µM
TGI (OVCAR-5 ovarian): > 100 µM
TGI (OVCAR-8 ovarian): > 100 µM
TGI (PC-3 prostate): > 100 µM
TGI (SF-295 CNS): > 100 µM
TGI (SF-539 CNS): > 100 µM
TGI (U251 CNS): > 100 µM

Cc1n[nH]c(=O)n1N=C(c1ccccc1)c1ccccc1
TGI (A549 NSCLC): > 100 µM
TGI (ACHN renal): > 100 µM
TGI (BT-549 breast): > 100 µM
TGI (CCRF-CEM leukemia): > 100 µM
TGI (HCT-116 colon): > 100 µM
TGI (MOLT-4 leukemia): > 100 µM
TGI (OVCAR-3 ovarian): > 100 µM
TGI (OVCAR-5 ovarian): > 100 µM
TGI (OVCAR-8 ovarian): > 100 µM
TGI (PC-3 prostate): > 100 µM
TGI (SF-295 CNS): > 100 µM
TGI (U251 CNS): > 100 µM

C=C1C(=O)OC2/C=C(\C)C(O)/C=C\C(C)(O)CC(OC(=O)/C(C)=C/C)C12 (stereo unspecified)
TGI (A549 NSCLC): > 100 µM
TGI (ACHN renal): 54.1 µM
TGI (CCRF-CEM leukemia): > 61.7 µM
TGI (HCC-2998 colon): > 100 µM
TGI (HCT-116 colon): 30 µM
TGI (MOLT-4 leukemia): 53.8 µM
TGI (OVCAR-3 ovarian): 46.2 µM
TGI (OVCAR-5 ovarian): > 100 µM
TGI (OVCAR-8 ovarian): 50.5 µM
TGI (SF-295 CNS): > 100 µM
TGI (SF-539 CNS): 20.7 µM
TGI (U251 CNS): > 100 µM

Cc1nc(-c2nc([N+](=O)[O-])c([N+](=O)[O-])[nH]2)cs1
TGI (A549 NSCLC): > 100 µM
TGI (ACHN renal): > 100 µM
TGI (CCRF-CEM leukemia): > 100 µM
TGI (HCC-2998 colon): > 100 µM
TGI (HCT-116 colon): > 100 µM
TGI (MOLT-4 leukemia): > 100 µM
TGI (OVCAR-3 ovarian): > 100 µM
TGI (OVCAR-5 ovarian): > 100 µM
TGI (SF-295 CNS): > 100 µM
TGI (SF-539 CNS): > 100 µM
TGI (U251 CNS): > 100 µM

CSC(=NCCN=C(NS(=O)(=O)c1ccc(Cl)cc1)SC)NS(=O)(=O)c1ccc(Cl)cc1
TGI (ACHN renal): > 100 µM
TGI (CCRF-CEM leukemia): > 100 µM
TGI (HCC-2998 colon): > 100 µM
TGI (HCT-116 colon): > 100 µM
TGI (MOLT-4 leukemia): > 100 µM
TGI (OVCAR-3 ovarian): > 100 µM
TGI (OVCAR-5 ovarian): > 100 µM
TGI (OVCAR-8 ovarian): > 100 µM
TGI (PC-3 prostate): > 100 µM
TGI (SF-295 CNS): > 100 µM
TGI (SF-539 CNS): > 100 µM
TGI (U251 CNS): 42.6 µM

C=C(Cl)C(Cl)(CBr)CCC(Cl)C(C)(C)Cl (stereo unspecified)
TGI (A549 NSCLC): 12.7 µM
TGI (ACHN renal): 3.9 µM
TGI (BT-549 breast): 20.1 µM
TGI (CCRF-CEM leukemia): 29.2 µM
TGI (HCC-2998 colon): 16.4 µM
TGI (HCT-116 colon): 2.02 µM
TGI (MOLT-4 leukemia): 53 µM
TGI (OVCAR-3 ovarian): 3.34 µM
TGI (OVCAR-5 ovarian): 7.41 µM
TGI (OVCAR-8 ovarian): 13 µM
TGI (PC-3 prostate): 3.36 µM
TGI (SF-295 CNS): 7.73 µM
TGI (SF-539 CNS): 1.35 µM
TGI (U251 CNS): 1.69 µM

COC(=O)C1=C(O)C(C(=O)OC)[C@]2(O)[C@H](C(=O)OC)[C@H]1C[C@@H](c1ccc(OC)cc1)[C@H]2C(=O)OC (stereo partly specified)
TGI (A549 NSCLC): 62.8 µM
TGI (ACHN renal): 37.6 µM
TGI (BT-549 breast): > 100 µM
TGI (HCC-2998 colon): 37.8 µM
TGI (HCT-116 colon): 38.5 µM
TGI (MOLT-4 leukemia): 68.1 µM
TGI (OVCAR-5 ovarian): 51.9 µM
TGI (OVCAR-8 ovarian): > 100 µM
TGI (SF-295 CNS): > 100 µM
TGI (SF-539 CNS): > 100 µM
TGI (T-47D breast): > 100 µM
TGI (U251 CNS): 65.6 µM

Cc1ccc(/C=N/Nc2ncccn2)s1
TGI (A549 NSCLC): > 100 µM
TGI (ACHN renal): > 100 µM
TGI (CCRF-CEM leukemia): > 100 µM
TGI (HCC-2998 colon): > 100 µM
TGI (HCT-116 colon): > 100 µM
TGI (OVCAR-3 ovarian): > 100 µM
TGI (OVCAR-5 ovarian): > 100 µM
TGI (OVCAR-8 ovarian): > 100 µM
TGI (PC-3 prostate): > 100 µM
TGI (SF-295 CNS): > 100 µM
TGI (SF-539 CNS): > 100 µM
TGI (T-47D breast): > 100 µM
TGI (U251 CNS): > 100 µM

S=C1C=C(c2ccccc2)Sc2ccccc2N1
TGI (A549 NSCLC): > 100 µM
TGI (ACHN renal): > 100 µM
TGI (BT-549 breast): > 100 µM
TGI (CCRF-CEM leukemia): > 100 µM
TGI (HCT-116 colon): > 100 µM
TGI (MOLT-4 leukemia): > 100 µM
TGI (OVCAR-3 ovarian): > 100 µM
TGI (OVCAR-5 ovarian): > 100 µM
TGI (OVCAR-8 ovarian): > 100 µM
TGI (PC-3 prostate): > 100 µM
TGI (SF-295 CNS): > 100 µM
TGI (T-47D breast): > 100 µM
TGI (U251 CNS): > 100 µM

COc1ccc2c(c1)c1cc(OC)ccc1n2CCCCOc1ccc(-c2c3ccccc3c(-c3ccc(OCCCCn4c5ccc(OC)cc5c5cc(OC)ccc54)cc3)c3ccccc23)cc1
TGI (A549 NSCLC): > 100 µM
TGI (ACHN renal): > 100 µM
TGI (CCRF-CEM leukemia): > 100 µM
TGI (HCC-2998 colon): > 100 µM
TGI (HCT-116 colon): > 100 µM
TGI (MOLT-4 leukemia): > 100 µM
TGI (OVCAR-3 ovarian): > 100 µM
TGI (OVCAR-5 ovarian): > 100 µM
TGI (OVCAR-8 ovarian): > 100 µM
TGI (SF-539 CNS): > 100 µM

O=C(NC(Nc1ccc(F)c(Cl)c1)(C(F)(F)F)C(F)(F)F)C(C(F)(F)F)C(F)(F)F
TGI (A549 NSCLC): > 100 µM
TGI (ACHN renal): 36.9 µM
TGI (CCRF-CEM leukemia): 73.9 µM
TGI (HCC-2998 colon): > 100 µM
TGI (HCT-116 colon): 41.7 µM
TGI (MOLT-4 leukemia): 57 µM
TGI (OVCAR-3 ovarian): > 100 µM
TGI (OVCAR-5 ovarian): 78.1 µM
TGI (OVCAR-8 ovarian): > 100 µM
TGI (PC-3 prostate): > 100 µM
TGI (SF-295 CNS): > 100 µM
TGI (SF-539 CNS): 48.7 µM
TGI (T-47D breast): > 100 µM
TGI (U251 CNS): > 100 µM

CC12ON=C(c3ccccc3)N1C=CN1C(c3ccccc3)=NOC12 (stereo unspecified)
TGI (A549 NSCLC): > 100 µM
TGI (ACHN renal): > 100 µM
TGI (BT-549 breast): > 100 µM
TGI (HCC-2998 colon): > 100 µM
TGI (HCT-116 colon): > 100 µM
TGI (OVCAR-3 ovarian): > 100 µM
TGI (OVCAR-5 ovarian): > 100 µM
TGI (OVCAR-8 ovarian): > 100 µM
TGI (PC-3 prostate): > 100 µM
TGI (SF-295 CNS): > 100 µM
TGI (SF-539 CNS): > 100 µM

CCOC(=O)c1c(SCCO)n(-c2ccccc2)c(=S)n(-c2ccccc2)c1=O
TGI (A549 NSCLC): > 100 µM
TGI (ACHN renal): > 100 µM
TGI (BT-549 breast): > 100 µM
TGI (CCRF-CEM leukemia): > 100 µM
TGI (HCT-116 colon): > 100 µM
TGI (MOLT-4 leukemia): > 100 µM
TGI (OVCAR-3 ovarian): > 100 µM
TGI (OVCAR-5 ovarian): > 100 µM
TGI (OVCAR-8 ovarian): > 100 µM
TGI (PC-3 prostate): > 100 µM
TGI (SF-295 CNS): > 100 µM
TGI (T-47D breast): > 100 µM
TGI (U251 CNS): > 100 µM

Nc1c(C(=O)c2ccccc2)[nH]c(NCc2ccccc2)c1C(=S)Nc1ccccc1
TGI (A549 NSCLC): > 100 µM
TGI (ACHN renal): > 100 µM
TGI (BT-549 breast): > 100 µM
TGI (CCRF-CEM leukemia): > 100 µM
TGI (HCC-2998 colon): > 100 µM
TGI (HCT-116 colon): > 100 µM
TGI (MOLT-4 leukemia): > 100 µM
TGI (OVCAR-3 ovarian): > 100 µM
TGI (OVCAR-5 ovarian): > 100 µM
TGI (OVCAR-8 ovarian): > 100 µM
TGI (SF-295 CNS): > 100 µM
TGI (SF-539 CNS): > 100 µM
TGI (T-47D breast): > 100 µM
TGI (U251 CNS): > 100 µM

COCN1C(=O)[C@@H]2CCCN2C(=O)c2cc([N+](=O)[O-])ccc21
TGI (A549 NSCLC): > 100 µM
TGI (ACHN renal): > 100 µM
TGI (BT-549 breast): > 100 µM
TGI (HCT-116 colon): > 100 µM
TGI (OVCAR-5 ovarian): > 100 µM
TGI (OVCAR-8 ovarian): > 100 µM
TGI (PC-3 prostate): > 100 µM
TGI (SF-295 CNS): > 100 µM
TGI (SF-539 CNS): > 100 µM
TGI (T-47D breast): > 100 µM
TGI (U251 CNS): > 100 µM
